Data published in patent US7741344B2, “Process for preparing purified S-BEL and R-BEL and compositions thereof” (Washington University in St. Louis, priority 2002, dated 2010).
Where two headings read alike, the source gives them in different places.

Assays:
A-10 smooth muscle cells = conditions: prior studies (10, 29), cited from earlier work
[1] = test system: PAP-1 in mouse P388D1 macrophages; conditions: ≈25 μM; (33); cited from earlier work
P388D1 macrophages = conditions: up to 5 μM BEL; (15); cited from earlier work
recombinant human iPLA2γ = molecular target: T1, recombinant human iPLA2γ (Homo sapiens, UniProt Q9NP80); conditions: previous experiments (24, 31); cited from earlier work
T1 construct: Recombinant full-length iPLA2γ was expressed in Sf9 cells; made in house; host or cells: Sf9 cells (washed membrane fraction, not purified)
T1 sequence (Q9NP80 1-782): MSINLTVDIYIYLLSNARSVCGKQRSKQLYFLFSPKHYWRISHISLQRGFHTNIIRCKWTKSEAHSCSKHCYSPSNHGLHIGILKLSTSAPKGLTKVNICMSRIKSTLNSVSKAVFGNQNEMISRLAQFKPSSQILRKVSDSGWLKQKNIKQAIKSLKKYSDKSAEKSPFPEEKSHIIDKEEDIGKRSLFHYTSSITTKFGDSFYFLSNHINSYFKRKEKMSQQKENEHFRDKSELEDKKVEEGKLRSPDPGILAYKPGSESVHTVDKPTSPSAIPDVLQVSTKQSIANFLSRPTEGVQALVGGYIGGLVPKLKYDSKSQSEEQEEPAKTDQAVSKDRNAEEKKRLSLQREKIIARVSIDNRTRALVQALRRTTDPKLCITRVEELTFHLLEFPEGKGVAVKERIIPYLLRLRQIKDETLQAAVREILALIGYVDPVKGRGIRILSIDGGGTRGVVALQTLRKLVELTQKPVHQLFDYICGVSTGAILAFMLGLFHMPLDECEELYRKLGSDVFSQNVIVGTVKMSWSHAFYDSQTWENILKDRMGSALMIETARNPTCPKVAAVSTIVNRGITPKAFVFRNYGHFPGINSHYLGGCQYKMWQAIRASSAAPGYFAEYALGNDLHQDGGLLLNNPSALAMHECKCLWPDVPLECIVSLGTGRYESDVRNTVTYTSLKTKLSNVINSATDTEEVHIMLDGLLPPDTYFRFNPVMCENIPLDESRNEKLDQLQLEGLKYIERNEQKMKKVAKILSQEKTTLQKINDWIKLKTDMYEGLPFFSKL

[2] = test system: purified recombinant iPLA2β; test: Assay of iPLA2β inhibition by BEL (radiolabeled phospholipid substrate); format: biochemical; conditions: FIG. 4A
Description: Recombinant iPLA2 Enzymes—Recombinant iPLA2β was expressed and purified from Sf9 cells as previously described (35).
Assay of iPLA2β and iPLA2γ Inhibition by BEL—Purified recombinant iPLA2β or Sf9 cell membranes containing recombinant iPLA2γ were incubated with (R) BEL, (S) BEL, racemic BEL, or ethanol vehicle for 3 mm at 22° C. in the presence of 100 mM Tris-HCl (pH 7.0) and 4 mM EGTA (for iPLA2β) or 100 mM Tris-acetate (pH 8.0) and 4 mM EGTA (for iPLA2γ). The concentration of BEL used for each test ranged from 0 to 16 μM. L-α-1-palmitoyl-2-[1^14C]-arachidonyl-phosphatidylcholine (5 μM final concentration) or L-α-1-palmitoyl-2-[1-^14C]-oleoyl-phosphatidylcholine (5 μM final concentration) in ethanol was then added to each sample and incubated at 37° C. for 2 min. Reactions were terminated by extraction of radiolabeled products into butanol, and reactants and products were separated by thin layer chromatography using Whatman LK6D 60 Å Silica Gel plates with petroleum ether/ethyl ether/acetic acid (70:30:1) as the mobile phase. Regions corresponding to the migration of a fatty acid standard visualized by iodine staining were scraped into vials and radioactivity was quantified by scintillation spectrometry.
Panel A—Purified recombinant iPLA2β (1 μg/ml) in 100 mM Tris-HCl, pH 7.3 containing 1 mM EGTA was preincubated at 22° C. for 3 mm in the presence of the indicated concentrations of (R)-, (S)-, or rac-BEL or ethanol vehicle alone (1% final concentration). Radiolabeled substrate (L-α-1-palmitoyl-2-[1-^14C]-arachidonyl-phosphatidylcholine, 5 μM final concentration) was then added to each reaction and incubated at 37° C. for 2 min. Reactions were terminated by extraction of remaining substrate and products into butanol, separation by TLC, and quantification of released radiolabeled fatty acid by scintillation spectrometry as described in Experimental Procedures.

α-chymotrypsin = molecular target: T2, α-chymotrypsin (Bos taurus, UniProt P00766); test: Inhibition of α-chymotrypsin by BEL; format: biochemical; conditions: 2 μM chymotrypsin, up to 5-fold molar excess of inhibitor, 5 min 22° C., then 1000-fold dilution with 100 mM hydrazine; FIG. 3
T2 construct: purchased Sigma
Description: Inhibition of α-Chymotrypsin by BEL—The kinetics of α-chymotrrpsin inactivation by (R)-, (S)-, and rac-BEL were performed similar to methods previously described (36). The concentration of α-chymotrypsin (MW=25,000) was determined using an A^1%=20 (1 cm pathlength) at 280 nm (37). Briefly, one milliliter of α-chymotrypsin (2 μM) was incubated with up to a 5-fold molar excess of (R)-,(S)-, or rac-BEL dissolved in acetonitrile or vehicle alone for 5 mm at 22° C. in 0.1 M sodium phosphate buffer, pH 7.2. […] Following incubation at 22° C. for 1 hr, chymotrypsin activity in each diluted sample was measured utilizing a SPECTRAmax GeminiXS microplate spectrofluorometer with N-succinyl-Ala-Ala-Pro-Phe-7-amidomethylcoumarin (50 μM) as substrate for 1 mm at 25° C. Excitation and emission wavelengths were 380 nm and 460 nm, respectively.
Chymotrypsin (2 μM) in 0.1 M sodium phosphate buffer, pH 7.2 was incubated with the indicated concentrations of racemic, (R)-, or (S)-BEL for 5 mm. This solution was then diluted 1000-fold in 0.1 M sodium phosphate buffer, pH 7.2 containing 100 mM hydrazine and incubated for 1 hr at 22° C. Chymotrypsin proteolytic activity was measured spectrofluorometrically using N-succinyl-Ala-Ala-Pro-Phe-7-amido-4-methylcoumarin (50 μM) as substrate.

SMILES: O=C1OC(=CBr)CCC1c1cccc2ccccc12 (racemic) [rac-BEL, Racemic (E)-6-(bromomethylene)-3-(1-naphthalenyl)-2H-tetrahydropyran-2-one]
- inhibition of AVP-inducible arachidonic acid release (A-10 smooth muscle cells; 2 μM BEL pretreatment): ≈ 60%
- inhibition of AVP-inducible arachidonic acid release (A-10 smooth muscle cells; 5 μM BEL pretreatment): ~80%
- inhibition of PAP-1 in mouse P388D1 macrophages [1]: effectively inhibit
- levels of diacylglycerol or phosphatidic acid formed upon stimulation with zymosan (P388D1 macrophages): does not significantly effect
- IC50 (recombinant human iPLA2γ): ~3 µM
- inhibitory potency on iPLA2β relative to the enantiomers [2]: intermediate of that of (R)-BEL and (S)-BEL

SMILES: O=C1O/C(=C/Br)CC[C@@H]1c1cccc2ccccc12 [(R)-BEL, (R)(E)-6-(bromomethylene)-3-(1-naphthalenyl)-2H-tetrahydropyran-2-one]
- inhibition of chymotrypsin (α-chymotrypsin): stoichiometrically and irreversibly inhibited
